The assay deals with experimental allergic encephalomyelitis mice. The experiment in a line: Experimental allergic encephalomyelitis, KN-93. In kind it is in vivo, mouse. Here is the method: The efficacy evaluation of KN-93 was performed with the experimental allergic encephalomyelitis mice as an animal model of multiple sclerosis. The experimental allergic encephalomyelitis was caused following the method of Bradley et al. (J. Clinical Investigation, 107: 995-1006, 2001). That is, 150 μg of PLP partial peptide (PLP139-151: NH2—[…]—COOH, SEQ ID NO 12) mixed in a Freund complete adjuvant was injected subcutaneously to a seven-week old female SJL/J mouse (purchased from Charles River Laboratories Japan) at the rear back. The severity of the condition was indicated as a score (disease score) according to the following criteria.
0.5: Slight paralysis of tail
2: Light paralysis of hind leg
3: Medium to intense paralysis of hind leg or light forelimb paralysis
4: Complete paralysis of hind paw or medium to intense paralysis of forelimb
5: Paralysis of four limbs or toward death period
KN-93 was suspended in 0.5% methylcellulose solution (0.1 mg/ml) and 0.1 ml per 10 g mouse weight was subcutaneously administered. In a control group, only 0.5% methylcellulose solution was subcutaneously administered. The administration was started on the 7 days after sensitization and carried out once a day for consecutive 24 days.

Regarding `COc1ccc(S(=O)(=O)N(CCO)c2ccccc2CN(C)C/C=C/c2ccc(Cl)cc2)cc1` [KN-93, N-(2-[N-[4-chlorocinnamyl]-N-methylaminomethyl]phenyl)-N-(2-hydroxyethyl)-4-methoxybenzenesulfonamide, reference compound], under “1 mg/kg subcutaneous once a day 24 days from 7 days after sensitization, FIG. 12”, the “condition (disease score)” value is “much lighter as compared with the control group”. The death (1 mg/kg subcutaneous once a day 24 days, control 7 of 10) is 2 of 10.

The values above are taken from patent publication US20080255121A1, “Combination Drug for Treating Autoimmune Disease” (DAINIPPON SUMITOMO PHARMA CO., LTD., priority 2004, published 2008).
